The text below walks through data of patent publication US12492196B2, “Thienyloxazolones and analogues” (Bayer Aktiengesellschaft, priority 2019, dated 2025).

Data set [1] is described as follows: Log P by HPLC on reversed phase columns (EEC directive 79/831 Annex V.A8). The format is physicochemical. The conditions noted are these: for chromatographic logP: reversed phase HPLC columns. On the procedure: In the above table, measurement of Log P values was performed according to EEC directive 79/831 Annex V.A8 by HPLC (High Performance Liquid Chromatography) on reversed phase columns with the following methods: • [^a] Log P value is determined by measurement of LC-UV, in an acidic range, with 0.1% formic acid in water and acetonitrile as eluent (linear gradient from 10% acetonitrile to 95% acetonitrile). • [^b] Log P value is determined by measurement of LC-UV, in a neutral range, with 0.001 molar ammonium acetate solution in water and acetonitrile as eluent (linear gradient from 10% acetonitrile to 95% acetonitrile). • [^c] Log P value is determined by measurement of LC-UV, in an acidic range, with 0.1% phosphoric acid and acetonitrile as eluent (linear gradient from 10% acetonitrile to 95% acetonitrile).
If more than one Log P value is available within the same method, all the values are given and separated by “+”.
Calibration was done with straight-chain alkan2-ones (with 3 to 16 carbon atoms) with known Log P values (measurement of Log P values using retention times with linear interpolation between successive alkanones). Lambda-max-values were determined using UV-spectra from 200 nm to 400 nm and the peak values of the chromatographic signals.

Data set [2] deals with Xanthomonas campestris pv. campestris. The data set is described as follows: In vivo preventive test on Xanthomonas campestris pv. campestris (black rot on cabbage). The conditions noted are these: Xanthomonas campestris, cabbage, evaluated 8 or 10 days after inoculation, read-out: efficacy; for pest or weed control at 31 ppm: 31 ppm of active ingredient; for pest or weed control at 125 ppm: 125 ppm of active ingredient. On the procedure: (§1) The tested active ingredients were prepared by homogenization in a mixture of acetone/Dimethyl sulfoxide/Tween®, and then diluted with water to obtain the desired active material concentration.
(§2) The young plants of cabbage were treated by spraying the active ingredient prepared as described above. Control plants were treated only with an aqueous solution of acetone/Dimethyl sulfoxide/Tween®.
After 72 hours, the plants were contaminated by spraying the leaves with an aqueous bacteria suspension of Xanthomonas campestris pv. campestris. The contaminated cabbage plants were incubated for 8 or 10 days at 27° C. at 95% relative humidity.
The test was evaluated 8 or 10 days after the inoculation. 0% means an efficacy which corresponds to that of the control plants while an efficacy of 100% means that no disease was observed.
Compound CMP1 was tested in an in vivo preventive test on Xanthomonas campestris pv. campestris (black rot on cabbage) in the same conditions as described in Example F.

Data set [3] has the same test system. The data set is described as follows: Xanthomonas campestris pv. campestris in vitro cell test. Type of data set: cell-based. To be noted: 20 ppm of active ingredient, 24 h incubation, read-out: efficacy (direct activity, inhibition of bacteria growth). As to the method:
Solvent: DMSO Culture medium: LB broth medium (Luria Broth Miller) Sigma Inoculum: bacteria suspension Compounds were solubilized in DMSO and the solution used to prepare the required range of concentrations. The final concentration of DMSO used in the assay was ≤1%. Inoculum was prepared from a pre-culture of bacteria grown in liquid medium and diluted to the desired optical density (OD). Compounds were evaluated for their ability to inhibit bacteria growth in liquid culture assay. The compounds were added in the desired concentrations to culture medium containing the bacteria suspension. After 24 h of incubation, the efficacy of compounds was determined by spectrometric measurement of bacteria growth. Inhibition was determined by comparing the absorbance values in wells containing the compounds with the absorbance in control wells without active ingredients.

A further data set relates to Uromyces appendiculatus. Briefly: In vivo preventive test on Uromyces appendiculatus (bean rust). To be noted: Uromyces appendiculatus, 240 h, bean, evaluated 10 days after inoculation, read-out: efficacy; for pest or weed control at 500 ppm: 500 ppm of active ingredient; for pest or weed control at 31 ppm: 31 ppm of active ingredient; for pest or weed control at 125 ppm: 125 ppm of active ingredient. On the procedure:
as §1
The young plants of bean were treated by spraying the active ingredient prepared as described above.
Control plants were treated only with an aqueous solution of acetone/Dimethyl sulfoxide/Tween®.
After 72 hours, the plants were contaminated by spraying the leaves with an aqueous suspension of Uromyces appendiculatus spores. The contaminated bean plants were incubated for 24 hours at 20° C. and at 100% relative humidity and then for 9 days at 20° C. and at 70-80% relative humidity.
The test was evaluated 10 days after the inoculation. 0% means an efficacy which corresponds to that of the control plants while an efficacy of 100% means that no disease was observed.
Compound CMP1 was tested in an in vivo preventive test on Uromyces appendiculatus (bean rust) in the same conditions as described in Example G.

Another data set concerns Peronospora parasitica. Briefly: In vivo preventive test on Peronospora parasitica (crucifer downy mildew). The conditions noted are these: Hyaloperonospora parasitica, 120 h; 125 ppm of active ingredient; cabbage; evaluated 5 days after inoculation; read-out: efficacy. As to the method: as §1, §2
After 72 hours, the plants were contaminated by spraying the leaves with an aqueous suspension of Peronospora parasitica spores. The contaminated cabbage plants were incubated for 5 days at 20° C. and at 100% relative humidity.
The test was evaluated 5 days after the inoculation. 0% means an efficacy which corresponds to that of the control plants while an efficacy of 100% means that no disease was observed.

The test system of data set [4] is salicylate responsive promoter sequence of the PR1 (pathogenesis-related protein I) gene (AT2G14610). The data set is described as follows: Induction of defense gene expression in Arabidopsis thaliana (PR1 promoter-GFP reporter plants). Type of data set: in vivo. To be noted: 72 h, 3rd day after spraying, mock treated leaves set as 1.00, read-out: relative fluorescence value; for fold induction at 75 ppm: 75 ppm of compound. As to the method:
Arabidopsis thaliana reporter plants containing the coding sequence of a green fluorescent protein (GFP) linked to the salicylate responsive promoter sequence of the PR1 (pathogenesis-related protein I) gene (AT2G14610) were grown for five days and then sprayed with compounds. On the 3rd day after spraying, plant fluorescence was assessed with a MacroFluo instrument from Leica Microsystems (Wetzlar, Germany). Fluorescences were quantified with the Meta-Morph Microscopy Automation & Image Analysis Software (Molecular Devices, Sunnyvale, Calif., United States).
Background fluorescence in mock treated leaves was set as 1.00.

For data set [5], the system named is Colletotrichum lindemuthianum. Briefly: Colletotrichum lindemuthianum in vitro cell test. Type of data set: cell-based. The conditions noted are these: 144 h, 20 ppm of active ingredient, 6 days incubation, read-out: efficacy (direct activity, inhibition of fungal growth). As to the method: Solvent: DMSO Culture medium: 14.6 g anhydrous D-glucose (VWR), 7.1 g Mycological Peptone (Oxoid), 1.4 g granulated Yeast Extract (Merck), QSP 1 liter Inoculum: spores suspension Fungicides were solubilized in DMSO and the solution used to prepare the required range of concentrations. The final concentration of DMSO used in the assay was ≤1%. A spore suspension of C. lindemuthianum was prepared and diluted to the desired spore density. Fungicides were evaluated for their ability to inhibit spores germination and mycelium growth in liquid culture assay. The compounds were added in the desired concentration to the culture medium with spores. After 6 days incubation, fungi-toxicity of compounds was determined by spectrometric measurement of mycelium growth. Inhibition of fungal growth was determined by comparing the absorbance values in wells containing the fungicides with the absorbance in control wells without fungicides.

The mark [6] stands for this setting: given in preparation examples, method not marked.
Where [7] appears, read: method [a]: LC-UV, acidic range, 0.1% formic acid in water and acetonitrile as eluent.

Structures are written as SMILES. Where two headings read alike, the source gives them in different places.

One may read the chromatographic logP as lipophilicity estimated from chromatographic retention. Lower therefore signals a more hydrophilic compound. `O=C(O)C1(NC(=S)c2sc(Br)c(Br)c2F)CC1` [1-{[(4,5-dibromo-3-fluoro-2-thienyl)carbonothioyl]amino}cyclopropanecarboxylic acid] gave a chromatographic logP in data set [1] (setting [6]) of 2.95.
By Log P is commonly meant a log measure of how a compound divides between an organic and an aqueous phase. As for `Cc1c(C(=O)NC2(C(=O)O)CC2)sc(C#N)c1Br` [1-{[(4-bromo-5-cyano-3-methyl-2-thienyl)carbonyl]amino}cyclopropanecarboxylic acid], in data set [1] (setting [6]), the lipophilicity (Log P) was found to be 1.84 and the chromatographic logP amounted to 1.88.
Molecule `Cc1c(C(=O)O)sc(C#N)c1Br` [4-bromo-5-cyano-3-methylthiophene-2-carboxylic acid] yielded a chromatographic logP in data set [1] (setting [6]) of 2.05.
What is called inhibition is the relative decrease from the control value, in per cent. Regarding `O=C1SC(c2sc(Cl)c(Cl)c2Cl)=NC12CC2` [I.01], in data set [2], the pest or weed control at 31 ppm was in the range of 80 to 89%. In data set [1] (setting [7]), this molecule displayed a chromatographic logP of 5.61. In addition, in data set [3], the inhibition at 20 ppm was at most 30%. Further, the pest or weed control at 500 ppm with Uromyces appendiculatus is 90 to 100%. For the same molecule, in the data set on Peronospora parasitica, the pest or weed control at 125 ppm was 80 to 89%. Further, in data set [4], the fold induction at 300 ppm is over 2.
As for `Cc1c(C2=NC3(CC3)C(=O)S2)sc(Br)c1Br` [I.02], the pest or weed control at 125 ppm in data set [2] is 80 to 89%. The inhibition at 20 ppm in data set [5] and in data set [3] was at most 30% throughout. Moreover, the chromatographic logP in data set [1] (setting [7]) is 5.65. Moreover, in the data set with Uromyces appendiculatus, the pest or weed control at 500 ppm lay within 70 to 79%. Besides, in data set [4], the fold induction at 75 ppm is over 2. Moreover, the fold induction at 300 ppm in data set [4] is over 2.
Consider `O=C1SC(c2sc(Br)c(Br)c2F)=NC12CC2` [I.03, 5-(4,5-dibromo-3-fluoro-2-thienyl)-6-thia-4-azaspiro[2.4]hept-4-en-7-one], for which the pest or weed control at 31 ppm in data set [2] lay within 70 to 79%. Also, the pest or weed control at 125 ppm in data set [2] was 70 to 79%. The inhibition at 20 ppm in data set [5] and in data set [3] was at most 30% each time. The chromatographic logP in data set [1] (setting [6]) and in data set [1] (setting [7]) was 5.08 throughout. Besides, the fold induction at 300 ppm in data set [4] was over 2.
Take `O=C1SC(c2sc(Br)c(Br)c2Br)=NC12CC2` [I.04]: the LogP in data set [1] (setting [7]) was 5.61^[a].
Still for that read-out and setting: the value for `N#Cc1sc(C2=NC3(CC3)C(=O)O2)cc1Br` [I.05] was 2.83^[a]; that for `Cc1c(C2=NC3(CC3)C(=O)O2)sc(C#N)c1Cl` [I.07] was 3.25^[a].
The same measure, in the same setting: the value for `Cc1c(C2=NC(C(C)C)C(=O)O2)sc(Br)c1Br` (stereo not shown) [I.10] was 5.31^[a].
As for `O=C1SC(c2sc(Br)c(Br)c2I)=NC12CC2` [I.14], the LogP in data set [1] (setting [7]) was 5.61^[a].
With `Cc1c(C2=NC3(CC3)C(=O)S2)sc(Cl)c1Cl` [I.15], the LogP in data set [1] is 5.53^[a].
As to `CC1(C)N=C(c2sc(Br)c(Br)c2F)OC1=O` [I.16], the inhibition at 20 ppm in data set [5] was at most 30%. In addition, the chromatographic logP in data set [1] (setting [7]) is 3.77. Moreover, in data set [3], the inhibition at 20 ppm was at most 30%. For the same molecule, in the data set on Uromyces appendiculatus, the pest or weed control at 31 ppm was 90 to 100% and the pest or weed control at 125 ppm lay in the range of 90 to 100%. Further, the pest or weed control at 125 ppm in the data set on Peronospora parasitica is 90 to 100%. Besides, in data set [4], the fold induction at 75 ppm is over 2 and the fold induction at 300 ppm is over 2.
For `O=C1OC(c2sc(Br)c(Br)c2Cl)=NC12CCC2` [I.17], the inhibition at 20 ppm in data set [5] and in data set [3] was at most 30% throughout. Moreover, the chromatographic logP in data set [1] (setting [7]) was determined as 4.51. Further, the pest or weed control at 125 ppm in the data set with Uromyces appendiculatus and in the data set on Peronospora parasitica was 90 to 100% in each case. Besides, in data set [4], the fold induction at 75 ppm was over 2. In data set [4], the fold induction at 300 ppm was over 2.
With `CC1(C)N=C(c2sc(Cl)c(Br)c2Br)OC1=O` [I.18], the LogP in data set [1] (setting [7]) is 4.32^[a].
With `Cc1c(C2=NC3(CCC3)C(=O)O2)sc(Cl)c1Cl` [I.19], the inhibition at 20 ppm in data set [5] and in data set [3] was at most 30% each time. The molecule also gave a chromatographic logP in data set [1] (setting [7]) of 4.75. For the same molecule, the pest or weed control at 31 ppm with Uromyces appendiculatus lay in the range of 90 to 100%. Moreover, the pest or weed control at 125 ppm in the data set on Uromyces appendiculatus and in the data set on Peronospora parasitica was 90 to 100% each time.
With `CC1(C)N=C(c2sc(Cl)c(Br)c2Cl)OC1=O` [I.21], the inhibition at 20 ppm in data set [5] and in data set [3] was at most 30% in each case. Further, in data set [1] (setting [7]), the chromatographic logP was 4.26. Besides, the pest or weed control at 31 ppm in the data set on Uromyces appendiculatus is 90 to 100%. The pest or weed control at 125 ppm in the data set with Uromyces appendiculatus and in the data set on Peronospora parasitica was 90 to 100% each time.
For the molecule `CC1(C)N=C(c2sc(Cl)c(Cl)c2Br)OC1=O` [I.23], the inhibition at 20 ppm in data set [5] and in data set [3] was at most 30% each time. Besides, the chromatographic logP in data set [1] (setting [7]) is 4.33. Further, in the data set with Uromyces appendiculatus, the pest or weed control at 31 ppm was 70 to 79%.
Turning to `Cc1c(C2=NC(C)(C)C(=O)O2)sc(Cl)c1Cl` [I.24], the inhibition at 20 ppm in data set [5] and in data set [3] was at most 30% each time. Moreover, the chromatographic logP in data set [1] (setting [7]) amounted to 4.51. The pest or weed control at 125 ppm in the data set on Uromyces appendiculatus was 90 to 100%; in the data set on Peronospora parasitica, 80 to 89%.
Consider `O=C(O)c1ccccc1O` [Salicylic acid, reference compound], for which the fold induction at 300 ppm in data set [4] came to 2.7.
In data set [1] (setting [6]), `COC(=O)C1(NC(=S)c2sc(Br)c(Br)c2F)CC1` [methyl 1-{[(4,5-dibromo-3-fluoro-2-thienyl)carbonothioyl]amino}cyclopropanecarboxylate] yielded a chromatographic logP of 3.91.
For `COC(=O)C1(NC(=O)c2sc(C#N)c(Br)c2C)CC1` [methyl 1-{[(4-bromo-5-cyano-3-methyl-2-thienyl)carbonyl]amino}cyclopropanecarboxylate], the chromatographic logP in data set [1] (setting [6]) is 2.31.
